The record followed here is patent US5447942A, “N-derivatives of (phenylethyl-β-ol) amine, a process for their preparation and pharamaceutical compositions containing the same” (Societe de Conseils de Recherches et d'Applications …, priority 1992, dated 1995).

For one assay, the target named is β adrenoceptors. The experiment in a line: radioligand binding studies in lung membrane (Table A, binding affinity). The text has this:
The results are summarised in Table A. Generally, the activity is better for the trans than the cis isomer.

Assay [1] relates to acetylcholine induced bronchoconstriction. The experiment in a line: inhibition of acetylcholine induced bronchoconstriction, Konzett and Rossler method (Table B). In kind it is in vivo, Male Hartley Guinea Pigs. The following applies: IV; for inhibition in vivo at 4.6 µmol/kg / inhibition in vivo at 0.46 µmol/kg / inhibition in vivo at 1.5 µmol/kg / inhibition in vivo at 0.42 µmol/kg / inhibition in vivo at 4.18 µmol/kg / inhibition in vivo at 4.8 µmol/kg / inhibition in vivo at 0.47 µmol/kg / inhibition in vivo at 0.13 µmol/kg / inhibition in vivo at 1.6 µmol/kg: Cavia porcellus. The procedure: Male Hartley Guinea Pigs (450-500 g) were anaesthetised with ethyl carbamate and prepared for recording bronchoconstriction according to Konzett and Rossler method (Naunym Schmiedebergers Arch. Exp. Path. Pharmakol (1940) 195, 71). To abolish spontaneous respiration, an injection IV of vecuronium bromide (2 mg/kg) was made. Bronchoconstriction was induced by IV injection of Acetylcholine and the animals received one dose of β agonist compound (IV) 5 minutes later.

Assay [2] concerns isolated aorta contraction induced by phenylephrine. The experiment in a line: inhibition of isolated aorta contraction induced by phenylephrine.
A further assay concerns the target α, receptor. Description: binding α receptor.
Setting [3] is: 5 min, 0.46 μmol/kg, 5 mn, read-out: bronchoconstriction protection, score 5 mn.
[4] abbreviates: 0.25 h, 0.46 μmol/kg, 15 mn, read-out: bronchoconstriction protection, score 15 mn.
Where [5] appears, read: 0.5 h, 0.46 μmol/kg, 30 mn, read-out: bronchoconstriction protection, score 30 mn.
The mark [6] stands for this setting: 5 min, 0.42 μmol/kg, 5 mn, read-out: bronchoconstriction protection, score 5 mn.
The mark [7] stands for this setting: 0.25 h, 0.42 μmol/kg, 15 mn, read-out: bronchoconstriction protection, score 15 mn.
[8] abbreviates: 0.5 h, 0.42 μmol/kg, 30 mn, read-out: bronchoconstriction protection, score 30 mn.
The mark [9] stands for this setting: 5 min, 0.13 μmol/kg, 5 mn, read-out: bronchoconstriction protection, score 5 mn.
Setting [10] is: 0.25 h, 0.13 μmol/kg, 15 mn, read-out: bronchoconstriction protection, score 15 mn.
[11] abbreviates: 0.5 h, 0.13 μmol/kg, 30 mn, read-out: bronchoconstriction protection, score 30 mn.
The mark [12] stands for this setting: 5 min, 1.6 μmol/kg, 5 mn, read-out: bronchoconstriction protection, score 5 mn.
The mark [13] stands for this setting: 0.25 h, 1.6 μmol/kg, 15 mn, read-out: bronchoconstriction protection, score 15 mn.
Where [14] appears, read: 0.5 h, 1.6 μmol/kg, 30 mn, read-out: bronchoconstriction protection, score 30 mn.

Like-named read-outs stand apart in the source and are kept apart here.

In general, Ki refers to the equilibrium dissociation constant of an inhibitor or competing ligand from its target. Lower therefore signals a stronger hold on the target. As for `COc1cc([C@H]2CC[C@@H](CNCC(O)c3ccc(O)c(CO)c3)O2)cc(OC)c1OC` (relative stereo) [Example 2 (cis), 2-(3',4',5'-trimethoxyphenyl)-5-[N-[β-(3'-hydroxymethyl-4'-hydroxy-phenyl)-β-hydroxy-ethyl]-aminomethyl]-tetrahydrofuran], the Ki was 410 nM on β adrenoceptors and 61 nM on α, receptor. The “bronchoconstriction protection, duration of action” value (shortened to “bronchoconstriction protection”) in assay [1] (4.6 μmol/kg) was 5 mn. Besides, the inhibition in vivo at 4.6 µmol/kg in assay [1] (5 min, 4.6 μmol/kg, 5 mn, read-out: bronchoconstriction protection, score 5 mn) was 20 to 50%; in assay [1] (0.25 h, 4.6 μmol/kg, 15 mn, read-out: bronchoconstriction protection, score 15 mn), less than 20%; in assay [1] (0.5 h, 4.6 μmol/kg, 30 mn, read-out: bronchoconstriction protection, score 30 mn) it was less than 20%. For the same compound, the “pA2, inhibitor of isolated aorta contraction induced by phenylephrine” value in assay [2] worked out at 7.75.
`COc1ccc([C@H]2CC[C@@H](CNCC(O)c3ccc(O)c(CO)c3)O2)cc1` (relative stereo) [Example 9 (cis), 2-(4'-methoxyphenyl)-5-[N-[β-(3'-hydroxymethyl-4'-hydroxy-phenyl)-β-hydroxy-ethyl]-aminomethyl]-tetrahydrofuran] had a Ki at β adrenoceptors of 810 nM. Moreover, the “bronchoconstriction protection” value in assay [1] (0.46 μmol/kg) worked out at 20 mn. Also, the values for the inhibition in vivo at 0.46 µmol/kg in assay [1] (setting [3]), in assay [1] (setting [4]) and in assay [1] (setting [5]) were 50 to 75%, 20 to 50% and less than 20%, respectively.
In the case of `COc1ccc([C@H]2CC[C@H](CNCC(O)c3ccc(O)c(CO)c3)O2)cc1` (relative stereo) [Example 9 (trans), 2-(4'-methoxyphenyl)-5-[N-[β-(3'-hydroxymethyl-4'-hydroxy-phenyl)-β-hydroxy-ethyl]-aminomethyl]-tetrahydrofuran], on β adrenoceptors, affinity was put at a Ki of 590 nM. Moreover, the “bronchoconstriction protection” value in assay [1] (0.46 μmol/kg) is greater than 30 mn. In addition, the figures for the inhibition in vivo at 0.46 µmol/kg in assay [1] (setting [3]), in assay [1] (setting [4]) and in assay [1] (setting [5]) were greater than 75%, 50 to 75% and 20 to 50%, respectively.
`COc1cc([C@H]2CC[C@@H](CCNCC(O)c3ccc(O)c(CO)c3)O2)cc(OC)c1OC` (relative stereo) [Example 14 (cis), 2-(3',4',5'-trimethoxyphenyl)-5-[N-[β-(3'-hydroxymethyl-4'-hydroxy-phenyl)-β-hydroxy-ethyl]-aminoethyl]-tetrahydrofuran]: the affinity at β adrenoceptors corresponds to a Ki of 1900 nM. For the same compound, the “bronchoconstriction protection” value in assay [1] (1.5 μmol/kg) worked out at 30 mn. The inhibition in vivo at 1.5 µmol/kg is greater than 75% in assay [1] (5 min, 1.5 μmol/kg, 5 mn, read-out: bronchoconstriction protection, score 5 mn); 20 to 50% in assay [1] (0.25 h, 1.5 μmol/kg, 15 mn, read-out: bronchoconstriction protection, score 15 mn); 20 to 50% in assay [1] (0.5 h, 1.5 μmol/kg, 30 mn, read-out: bronchoconstriction protection, score 30 mn).
`COc1cc([C@H]2CC[C@H](CCCNCC(O)c3ccc(O)c(CO)c3)O2)cc(OC)c1OC` (relative stereo) [Example 15 (trans), 2-(3',4',5'-trimethoxyphenyl)-5-[-N-[β-(3'-hydroxymethyl-4'-hydroxy-phenyl)-β-hydroxy-ethyl]-aminopropyl]-tetrahydrofuran] gave a Ki on β adrenoceptors of 760 nM. In addition, the entries for the “bronchoconstriction protection” value in assay [1] (0.42 μmol/kg) and in assay [1] (4.18 μmol/kg) were 20 mn and greater than 50 mn, respectively. In addition, the inhibition in vivo at 0.42 µmol/kg was greater than 75% in assay [1] (setting [6]), 50 to 75% in assay [1] (setting [7]) and less than 20% in assay [1] (setting [8]). Further, the inhibition in vivo at 4.18 µmol/kg was greater than 75% in assay [1] (5 min, 4.18 μmol/kg, 5 mn, read-out: bronchoconstriction protection, score 5 mn); greater than 75% in assay [1] (0.25 h, 4.18 μmol/kg, 15 mn, read-out: bronchoconstriction protection, score 15 mn); 50 to 75% in assay [1] (0.5 h, 4.18 μmol/kg, 30 mn, read-out: bronchoconstriction protection, score 30 mn).
For `OCc1cc(C(O)CNCC2CCC(c3ccccc3)O2)ccc1O` (stereo not drawn) [Example 1, 2-phenyl-5-[N-[β-(3'-hydroxymethyl-4'-hydroxy-phenyl)-β-hydroxy-ethyl]aminomethyl]-tetrahydrofuran], at β adrenoceptors, the inhibition constant Ki came to 410 nM. Also, the “bronchoconstriction protection” value in assay [1] (4.8 μmol/kg) worked out at 0 mn. The inhibition in vivo at 4.8 µmol/kg in assay [1] (5 min, 4.8 μmol/kg, 5 mn, read-out: bronchoconstriction protection, score 5 mn) is less than 20%; in assay [1] (0.25 h, 4.8 μmol/kg, 15 mn, read-out: bronchoconstriction protection, score 15 mn) it was less than 20%; in assay [1] (0.5 h, 4.8 μmol/kg, 30 mn, read-out: bronchoconstriction protection, score 30 mn), less than 20%.
For `OCc1cc(C(O)CNCC2CCC(c3ccccc3F)O2)ccc1O` (stereo not drawn) [Example 6, 2-(2'-fluorophenyl)-5-[N-[β-(3'-hydroxymethyl-4'-hydroxy-phenyl)-β-hydroxy-ethyl]-aminomethyl]-tetrahydrofuran], the Ki on β adrenoceptors was 1800 nM. In addition, the “bronchoconstriction protection” value in assay [1] (0.47 μmol/kg) is reported as less than 30 mn. Further, the inhibition in vivo at 0.47 µmol/kg in assay [1] (5 min, 0.47 μmol/kg, 5 mn, read-out: bronchoconstriction protection, score 5 mn) is 50 to 75%; in assay [1] (0.25 h, 0.47 μmol/kg, 15 mn, read-out: bronchoconstriction protection, score 15 mn), 20 to 50%; in assay [1] (0.5 h, 0.47 μmol/kg, 30 mn, read-out: bronchoconstriction protection, score 30 mn), 20 to 50%.
As for `OCc1cc(C(O)CNCC2CCC(c3ccncc3)O2)ccc1O` (stereo not drawn) [Example 12, 2-(4'-pyridyl)-5-[N-[β-(3'-hydroxymethyl-4'-hydroxy-phenyl)-β-hydroxy-ethyl]-aminomethyl]-tetrahydrofuran], the Ki at β adrenoceptors was 350 nM. Further, the “bronchoconstriction protection” value in assay [1] (0.13 μmol/kg) and in assay [1] (0.42 μmol/kg) was greater than 30 mn throughout. Besides, the inhibition in vivo at 0.13 µmol/kg in assay [1] (setting [9]) fell in the range of 50 to 75%; in assay [1] (setting [10]) it was 20 to 50%; in assay [1] (setting [11]), 20 to 50%. Besides, the figures for the inhibition in vivo at 0.42 µmol/kg in assay [1] (setting [6]), in assay [1] (setting [7]) and in assay [1] (setting [8]) were 50 to 75%, 50 to 75% and 20 to 50%, respectively.
`OCc1cc(C(O)CNCCCC2CCC(c3ccccc3Cl)O2)ccc1O` (stereo not drawn) [Example 16, 2-(2'-chlorophenyl)-5-[N-[β-(3'-hydroxymethyl-4'-hydroxy-phenyl)-β-hydroxy-ethyl]-aminopropyl]-tetrahydrofuran]: at β adrenoceptors, the Ki is 570 nM. In addition, in assay [1] (1.6 μmol/kg), the “bronchoconstriction protection” value is greater than 15 mn. The inhibition in vivo at 1.6 µmol/kg in assay [1] (setting [12]) is 20 to 50%; in assay [1] (setting [13]) it was 20 to 50%; in assay [1] (setting [14]), less than 20%.
On β adrenoceptors, `COc1cc(C2CC(CNCC(O)c3ccc(O)c(CO)c3)CO2)cc(OC)c1OC` (stereo not drawn) [Example 18] returned a Ki of 1600 nM. Further, the “bronchoconstriction protection” value in assay [1] (1.6 μmol/kg) came to 30 mn. Besides, the results for the inhibition in vivo at 1.6 µmol/kg in assay [1] (setting [12]), in assay [1] (setting [13]) and in assay [1] (setting [14]) were 50 to 75%, 20 to 50% and 20 to 50%, respectively.
On β adrenoceptors, `CC(C)(C)NCC(O)c1ccc(O)c(CO)c1` (stereo not drawn) [Salbutamol, reference compound] registered a Ki of 2500 nM. In addition, the “bronchoconstriction protection” value was determined as 10 mn in assay [1] (0.13 μmol/kg) and 30 mn in assay [1] (0.42 μmol/kg). In addition, the results for the inhibition in vivo at 0.13 µmol/kg in assay [1] (setting [9]), in assay [1] (setting [10]) and in assay [1] (setting [11]) were greater than 75%, less than 20% and less than 20%, respectively. For the same compound, the inhibition in vivo at 0.42 µmol/kg is greater than 75% in assay [1] (setting [6]), greater than 75% in assay [1] (setting [7]) and less than 20% in assay [1] (setting [8]).
